The assay addresses PDE4D3 (Homo sapiens, UniProt Q08499).

Some results are limits rather than exact numbers.

Sequence of PDE4D3 (Q08499 1-673 isoform Q08499-2): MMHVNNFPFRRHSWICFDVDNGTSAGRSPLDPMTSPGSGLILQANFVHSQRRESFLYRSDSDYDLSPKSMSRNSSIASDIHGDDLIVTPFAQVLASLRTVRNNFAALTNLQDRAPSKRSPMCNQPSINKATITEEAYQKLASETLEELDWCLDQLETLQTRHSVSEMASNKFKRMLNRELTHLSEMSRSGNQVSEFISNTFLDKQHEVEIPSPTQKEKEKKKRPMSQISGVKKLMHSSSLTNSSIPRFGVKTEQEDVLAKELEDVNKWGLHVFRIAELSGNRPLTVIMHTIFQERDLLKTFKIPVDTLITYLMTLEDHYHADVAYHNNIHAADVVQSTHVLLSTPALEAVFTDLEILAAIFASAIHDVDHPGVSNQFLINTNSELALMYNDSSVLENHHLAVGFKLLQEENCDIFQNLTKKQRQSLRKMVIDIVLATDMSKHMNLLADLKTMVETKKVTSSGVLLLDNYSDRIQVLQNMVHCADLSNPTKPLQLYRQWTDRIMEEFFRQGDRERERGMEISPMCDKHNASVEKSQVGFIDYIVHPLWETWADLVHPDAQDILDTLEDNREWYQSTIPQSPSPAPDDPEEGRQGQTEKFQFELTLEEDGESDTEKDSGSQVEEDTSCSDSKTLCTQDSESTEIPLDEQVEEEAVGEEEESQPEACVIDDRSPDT

`Cc1ncn(Cc2cnc(OC(F)F)c(-c3cccc(Cl)c3)c2)n1` [Example 148, 3-(3-Chlorophenyl)-2-(difluoromethoxy)-5-[(3-methyl-1H-1,2,4-triazol-1-yl)methyl]pyridine] registered a concentration for a half-maximal effect (EC50) below 0.1 µM.

Turning to `CS(=O)(=O)c1ccc(Cc2cnc(OC(F)F)c(-c3cccc(Cl)c3)c2)cc1` [Example 45, 3-(3-Chlorophenyl)-2-(difluoromethoxy)-5-[(4-methanesulfonylphenyl)methyl]pyridine], the EC50 was 0.1 to 1 µM.

Compound `COc1ncc(Cc2ccc(C(C)(C)O)nc2)cc1-c1cccc(Cl)c1` [Example 251, 2-(5-{[5-(3-Chlorophenyl)-6-methoxypyridin-3-yl]methyl}pyridin-2-yl)propan-2-ol] yielded an EC50 of 0.1 to 1 µM.

As for `CCOc1ncc(Cn2cc(CO)cn2)cc1-c1cccc(Cl)c1` [Example 276, (1-{[5-(3-Chlorophenyl)-6-ethoxypyridin-3-yl]methyl}-1H-pyrazol-4-yl)methanol], the EC50 is below 0.1 µM.

On to `COc1ncc(Cn2cnc(CF)n2)nc1-c1cccc(Cl)c1` [Example 258, 3-(3-Chlorophenyl)-5-{[3-(fluoromethyl)-1H-1,2,4-triazol-1-yl]methyl}-2-methoxypyrazine], for which the EC50 is 1 to 10 µM.

`OCc1cncn1Cc1cnc(OC(F)F)c(-c2cccc(Cl)c2)c1` [Example 273, (1-{[5-(3-Chlorophenyl)-6-(difluoromethoxy)pyridin-3-yl]methyl}-1H-imidazol-5-yl)methanol]: the 50% effective concentration (EC50) is 1 to 10 µM.

`COc1ncc(Cn2cc(C)cn2)cc1-c1cccc(Cl)c1` [Example 179, 3-(3-Chlorophenyl)-2-methoxy-5-[(4-methyl-1H-pyrazol-1-yl)methyl]pyridine] had a concentration for a half-maximal effect (EC50) of 0.1 to 1 µM.

Regarding `CCOc1ncc(Cc2cnc(C(N)=O)nc2)cc1-c1cccc(OC(F)F)c1` [Example 119, 5-({5-[3-(Difluoromethoxy)phenyl]-6-ethoxypyridin-3-yl}methyl)pyrimidine-2-carboxamide], the EC50 was below 0.1 µM.

Regarding `COc1ncc(Cc2ccnc(N)c2)cc1-c1cccc(Cl)c1` [Example 60, 4-{[5-(3-Chlorophenyl)-6-methoxypyridin-3-yl]methyl}pyridin-2-amine], the EC50 is 0.1 to 1 µM.

As for `COc1ncnn1Cc1cnc(OC(F)F)c(-c2cccc(Cl)c2)c1` [Example 215, 3-(3-Chlorophenyl)-2-(difluoromethoxy)-5-[(5-methoxy-1H-1,2,4-triazol-1-yl)methyl]pyridine], the EC50 is 1 to 10 µM.

`COc1ncc(Cn2cnc(C)n2)cc1-c1cccc(F)c1` [Example 151, 3-(3-Fluorophenyl)-2-methoxy-5-[(3-methyl-1H-1,2,4-triazol-1-yl)methyl]pyridine] showed an EC50 below 0.1 µM.

In turn, `CCOc1ncc(Cn2cnc(C(=O)OC)n2)nc1-c1cccc(OC(F)F)c1` [Example 191, Methyl 1-((6-(3-(difluoromethoxy)phenyl)-5-ethoxypyrazin-2-yl)methyl)-1H-1,2,4-triazole-3-carboxylate] displayed an EC50 of 0.1 to 1 µM.

As for `FC(F)Oc1ncc(Cc2ccccn2)cc1-c1cccc(Cl)c1` [Example 109, 3-(3-Chlorophenyl)-2-(difluoromethoxy)-5-(pyridin-2-ylmethyl)pyridine], the concentration giving a half-maximal response (EC50) is 0.1 to 1 µM.

On to `CCOc1ncc(Cc2cnc(C(N)=O)nc2)cc1-c1ccnc(OC(F)F)c1` [Example 122, 5-({5-[2-(Difluoromethoxy)pyridin-4-yl]-6-ethoxypyridin-3-yl}methyl)pyrimidine-2-carboxamide], for which the EC50 is below 0.1 µM.

In the case of `COc1ncc(Cn2cnc(C(C)(C)O)n2)cc1-c1cccc(Cl)c1` [Example 247, 2-(1-{[5-(3-Chlorophenyl)-6-methoxypyridin-3-yl]methyl}-1H-1,2,4-triazol-3-yl)propan-2-ol], the concentration giving a half-maximal response (EC50) lay in the range of 1 to 10 µM.

`COc1ncc(Cn2cncn2)cc1-c1cccc(C(F)F)c1` [Example 144, 3-[3-(Difluoromethyl)phenyl]-2-methoxy-5-(1H-1,2,4-triazol-1-ylmethyl)pyridine] registered an EC50 below 0.1 µM.

As to `CCOc1cccc(-c2cc(Cn3cnc(CO)n3)cnc2OC(F)F)c1` [Example 204, (1-{[6-(Difluoromethoxy)-5-(3-ethoxyphenyl)pyridin-3-yl]methyl}-1H-1,2,4-triazol-3-yl)methanol], the EC50 is below 0.1 µM.

Consider `COc1ncc(Cc2c(C)noc2C)nc1-c1cccc(Cl)c1` [Example 98, 3-(3-Chlorophenyl)-5-[(dimethyl-1,2-oxazol-4-yl)methyl]-2-methoxypyrazine], for which the concentration giving a half-maximal response (EC50) lay within 1 to 10 µM.

Regarding `COc1ncc(Cc2cnn(C)c2)nc1-c1cccc(Cl)c1` [Example 58, 3-(3-Chlorophenyl)-2-methoxy-5-[(1-methyl-1H-pyrazol-4-yl)methyl]pyrazine], the half-maximal effective concentration (EC50) is below 0.1 µM.

`COc1ncn(Cc2cnc(OC)c(-c3cccc(Cl)c3)c2)n1` [Example 213, 3-(3-Chlorophenyl)-2-methoxy-5-[(3-methoxy-1H-1,2,4-triazol-1-yl)methyl]pyridine] came in with an EC50 of 0.1 to 1 µM.

Compound `COc1ncc(Cc2cnc(N)nc2)cc1-c1cccc(Cl)c1` [Example 25, 5-{[5-(3-Chlorophenyl)-6-methoxypyridin-3-yl]methyl}pyrimidin-2-amine] showed an EC50 below 0.1 µM.

The compound `CCOc1ncc(Cc2cnc(N)nc2)nc1-c1cccc(OC(F)F)c1` [Example 104, 5-({6-[3-(Difluoromethoxy)phenyl]-5-ethoxypyrazin-2-yl}methyl)pyrimidin-2-amine] displayed a half-maximal effective concentration (EC50) below 0.1 µM.

For the compound `CNc1ncc(Cc2cnc(OC)c(-c3cccc(Cl)c3)c2)cn1` [Example 81, 5-{[5-(3-Chlorophenyl)-6-methoxypyridin-3-yl]methyl}-N-methylpyrimidin-2-amine], the EC50 was 0.1 to 1 µM.

Take `CCOc1ncc(Cn2cnc(CF)n2)nc1-c1cccc(OC(F)F)c1` [Example 257, 3-[3-(Difluoromethoxy)phenyl]-2-ethoxy-5-{[3-(fluoromethyl)-1H-1,2,4-triazol-1-yl]methyl}pyrazine]: the EC50 fell in the range of 1 to 10 µM.

In turn, `COc1ncc(Cn2cncn2)cc1-c1cn[nH]c1` [Example 242, 2-Methoxy-3-(1H-pyrazol-4-yl)-5-(1H-1,2,4-triazol-1-ylmethyl)pyridine] displayed an EC50 above 10 µM.

Compound `COc1cccc(-c2cc(Cn3cnc(N)n3)cnc2OC(F)F)c1` [Example 227, 1-{[6-(Difluoromethoxy)-5-(3-methoxyphenyl)pyridin-3-yl]methyl}-1H-1,2,4-triazol-3-amine] showed an EC50 of 0.1 to 1 µM.

Take `COc1ncc(Cn2ccnn2)cc1-c1cccc(Cl)c1` [Example 262, 3-(3-Chlorophenyl)-2-methoxy-5-(1H-1,2,3-triazol-1-ylmethyl)pyridine]: the EC50 is below 0.1 µM.

For the compound `COc1ncc(Cc2cnc(C)nc2)cc1-c1cccc(Cl)c1` [Example 75, 5-{[5-(3-Chlorophenyl)-6-methoxypyridin-3-yl]methyl}-2-methylpyrimidine], the concentration giving a half-maximal response (EC50) lay within 0.1 to 1 µM.

As for `COc1ncc(Cn2ccc(CO)n2)cc1-c1cccc(OC(F)F)c1` [Example 275, [1-({5-[3-(Difluoromethoxy)phenyl]-6-methoxypyridin-3-yl}methyl)-1H-pyrazol-3-yl]methanol], the EC50 is below 0.1 µM.

Consider `OCc1ncn(Cc2cnc(OC(F)F)c(-c3cccc(Cl)c3)c2)n1` [Example 200, (1-{[5-(3-Chlorophenyl)-6-(difluoromethoxy)pyridin-3-yl]methyl}-1H-1,2,4-triazol-3-yl)methanol], for which the 50% effective concentration (EC50) was in the range of 0.1 to 1 µM.
